Measurements published in ChEMBL document CHEMBL1153258, “Synthesis and antiviral activity of 3-substituted imidazo[1,2-a]pyridines” (Bioorg Med Chem Lett, 1994).
Converted amounts (≈) assume the structure as drawn.

Legend:
[1] = test system: Vero; experiment: Antiviral activity (to reduce virus-induced cytopathogenicity) against Parainfluenza-3 virus in vero cells; type: functional; conditions: Chlorocebus sabaeus
[2] = test system: Vero; experiment: Antiviral activity (to reduce virus-induced cytopathogenicity) against Reovirus-1 in vero cells; type: functional; conditions: Chlorocebus sabaeus
[3] = test system: Vero; experiment: Minimum cytotoxic concentration (to alter cell morphology) against vero cells; type: functional; conditions: Chlorocebus sabaeus
[4] = test system: HeLa; experiment: Cytotoxicity (to alter cell morphology) against HeLa cells; type: functional; conditions: Homo sapiens
[5] = test system: E6SM; experiment: Antiviral activity (to reduce virus-induced cytopathogenicity) against Herpes simplex virus-2 (G) in E6SM cell cultures; type: functional; conditions: Homo sapiens
[6] = test system: E6SM; experiment: Antiviral activity (to reduce virus-induced cytopathogenicity) against Vesicular stomatitis virus in E6SM cell cultures; type: functional; conditions: Homo sapiens
[7] = test system: E6SM; experiment: Antiviral activity (to reduce virus-induced cytopathogenicity) against Herpes simplex virus-1 TK-B2006 in E6SM cell cultures; type: functional; conditions: Homo sapiens
[8] = test system: Vero; experiment: Antiviral activity (to reduce virus-induced cytopathogenicity) against Coxsackie virus in vero cells; type: functional; conditions: Chlorocebus sabaeus
[9] = test system: HeLa; experiment: Antiviral activity (to reduce virus-induced cytopathogenicity) against Vesicular stomatitis virus in HeLa cells; type: functional; conditions: Homo sapiens
[10] = test system: E6SM; experiment: Antiviral activity (to reduce virus-induced cytopathogenicity) against Vaccinia virus in E6SM cell cultures; type: functional; conditions: Homo sapiens
[11] = test system: Vero; experiment: Antiviral activity (to reduce virus-induced cytopathogenicity) against Sindbis virus in vero cells; type: functional; conditions: Chlorocebus sabaeus
[12] = test system: E6SM; experiment: Cytotoxicity (to alter cell morphology) against E6SM cell cultures; type: functional; conditions: Homo sapiens
[13] = test system: Vero; experiment: Antiviral activity (to reduce virus-induced cytopathogenicity) against forest virus in vero cells; type: functional; conditions: Chlorocebus sabaeus
[14] = test system: E6SM; experiment: Antiviral activity (to reduce virus-induced cytopathogenicity) against Herpes simplex virus-1 TK-VMW1837 in E6SM cell cultures; type: functional; conditions: Homo sapiens
[15] = test system: HeLa; experiment: Antiviral activity (to reduce virus-induced cytopathogenicity) against Coxsackie virus B4 in HeLa cells; type: functional; conditions: Homo sapiens
[16] = test system: HeLa; experiment: Antiviral activity (to reduce virus-induced cytopathogenicity) against Polio virus-I in HeLa cells; type: functional; conditions: Homo sapiens
[17] = test system: E6SM; experiment: Antiviral activity (to reduce virus-induced cytopathogenicity) against Herpes simplex virus-1(KOS) in E6SM cell cultures; type: functional; conditions: Homo sapiens
[18] = test system: HEL; experiment: Cytotoxicity (to alter cell morphology) against Cytomegalovirus in human embryonic lung (HEL) cells; type: functional
[19] = Cytotoxicity (to reduce cell growth) against Varicella-Zoster virus in human embryonic lung (HEL) cells; type: cell-based
[20] = test system: HEL; experiment: Antiviral activity against Cytomegalovirus (AD-169 strain) to reduce plaque formation in human embryonic lung (HEL) cells; type: functional, cell-based
[21] = test system: HEL; experiment: Cytotoxicity (to alter cell morphology) against Varicella-Zoster virus in human embryonic lung (HEL) cells; type: functional
[22] = test system: HEL; experiment: Antiviral activity against thymidine kinase-negative (TK-) YS/R strain of Varicella zoster virus to reduce plaque formation in human embryonic lung (HEL) cells; type: functional, cell-based
[23] = test system: HEL; experiment: Antiviral activity against Cytomegalovirus (Davis strain) to reduce plaque formation in human embryonic lung (HEL) cells; type: functional, cell-based
[24] = test system: HEL; experiment: Antiviral activity against thymidine kinase-negative (TK-) O7/1 strain of Varicella zoster virus to reduce plaque formation in human embryonic lung (HEL) cells; type: functional, cell-based
[25] = test system: HEL; experiment: Antiviral activity against thymidine kinase-positive (TK+) OKA strain of Varicella zoster virus to reduce plaque formation in human embryonic lung (HEL) cells; type: functional, cell-based
[26] = Cytotoxicity (to reduce cell growth) against Cytomegalovirus in human embryonic lung (HEL) cells; type: cell-based
[27] = test system: HEL; experiment: Antiviral activity against thymidine kinase-positive (TK+) YS strain of Varicella zoster virus to reduce plaque formation in human embryonic lung (HEL) cells; type: functional, cell-based

SMILES | MIC [1] | MIC [2] | MCC [3] | MCC [4] | MIC [5] | MIC [6] | MIC [7] | MIC [8] | MIC [9] | MIC [10] | MIC [11] | MCC [12] | MIC [13] | MIC [14] | MIC [15] | MIC [16] | MIC [17] | MCC [18] | CC50 [19] | IC50 [20] | also measured
NC(=O)c1ncn([C@@H]2O[C@H](CO)[C@@H](O)[C@H]2O)n1 [RIBAVIRIN] | 70 µg/mL (≈ 287 µM) | 100 µg/mL (≈ 409 µM) | > 400 µg/mL | > 400 µg/mL | 150 µg/mL (≈ 614 µM) | 150 µg/mL (≈ 614 µM) | 300 µg/mL (≈ 1230 µM) | 300 µg/mL (≈ 1230 µM) | 20 µg/mL (≈ 81.9 µM) | 70 µg/mL (≈ 287 µM) | 70 µg/mL (≈ 287 µM) | > 400 µg/mL | 70 µg/mL (≈ 287 µM) | 300 µg/mL (≈ 1230 µM) | 70 µg/mL (≈ 287 µM) | 70 µg/mL (≈ 287 µM) | > 400 µg/mL |  |  |  | 
O=c1[nH]c(=O)n([C@H]2C[C@H](O)[C@@H](CO)O2)cc1/C=C/Br [BRIVUDINE] | > 400 µg/mL | > 400 µg/mL | > 400 µg/mL | > 400 µg/mL | 20 µg/mL (≈ 60 µM) | > 400 µg/mL | 2 µg/mL (≈ 6 µM) | > 400 µg/mL | > 400 µg/mL | 0.2 µg/mL (≈ 0.6 µM) | > 400 µg/mL | > 400 µg/mL | > 400 µg/mL | 1 µg/mL (≈ 3 µM) | > 400 µg/mL | > 400 µg/mL | 0.004 µg/mL (≈ 0.012 µM) |  |  |  | 
Cc1ccn2c(COCCO)cnc2c1 | > 200 µg/mL | > 200 µg/mL | > 200 µg/mL | 200 µg/mL | > 400 µg/mL | > 400 µg/mL | > 400 µg/mL | > 200 µg/mL | > 200 µg/mL | > 400 µg/mL | > 200 µg/mL | > 400 µg/mL | > 200 µg/mL | > 400 µg/mL | > 200 µg/mL | > 200 µg/mL | > 400 µg/mL | > 40 µg/mL | > 200 µg/mL | > 40 µg/mL | MCC [21]: > 40 µg/mL; IC50 [22]: > 40 µg/mL; IC50 [23]: > 40 µg/mL; IC50 [24]: > 40 µg/mL; IC50 [25]: > 40 µg/mL; CC50 [26]: > 200 µg/mL; IC50 [27]: > 40 µg/mL
OCCOCc1c(-c2ccccc2)nc2ccccn12 | 70 µg/mL (≈ 261 µM) | > 200 µg/mL | 400 µg/mL | 400 µg/mL | > 200 µg/mL | > 100 µg/mL | > 100 µg/mL | > 200 µg/mL | > 200 µg/mL | > 200 µg/mL | > 200 µg/mL | > 200 µg/mL | > 200 µg/mL | > 100 µg/mL | > 200 µg/mL | > 200 µg/mL | > 200 µg/mL | 100 µg/mL | 135 µg/mL (≈ 503 µM) | > 40 µg/mL | MCC [21]: > 40 µg/mL; IC50 [22]: > 40 µg/mL; IC50 [23]: > 40 µg/mL; IC50 [24]: > 40 µg/mL; IC50 [25]: > 40 µg/mL; CC50 [26]: 130 µg/mL (≈ 485 µM); IC50 [27]: > 40 µg/mL
Nc1ncnc2c1ncn2C[C@H](O)CO [(S)-DHPA] | 20 µg/mL (≈ 95.6 µM) | 40 µg/mL (≈ 191 µM) | > 400 µg/mL | > 400 µg/mL | > 400 µg/mL | 40 µg/mL (≈ 191 µM) | 200 µg/mL (≈ 956 µM) | > 400 µg/mL | 70 µg/mL (≈ 335 µM) | 40 µg/mL (≈ 191 µM) | > 400 µg/mL | > 400 µg/mL | > 400 µg/mL | 100 µg/mL (≈ 478 µM) | > 400 µg/mL | > 400 µg/mL | 100 µg/mL (≈ 478 µM) |  |  |  | 
Nc1nccc2c1ncn2[C@@H]1O[C@H](CO)[C@@H](O)[C@H]1O | 0.7 µg/mL (≈ 2.63 µM) | 2 µg/mL (≈ 7.51 µM) | > 400 µg/mL | > 400 µg/mL | 300 µg/mL (≈ 1130 µM) | 0.7 µg/mL (≈ 2.63 µM) | 200 µg/mL (≈ 751 µM) | > 400 µg/mL | 2 µg/mL (≈ 7.51 µM) | 0.7 µg/mL (≈ 2.63 µM) | 4 µg/mL (≈ 15 µM) | > 400 µg/mL | > 400 µg/mL | > 400 µg/mL | > 400 µg/mL | > 400 µg/mL | > 400 µg/mL |  |  |  | 
Nc1nc2c(ncn2COCCO)c(=O)[nH]1 [ACYCLOVIR] |  |  |  |  |  |  |  |  |  |  |  |  |  |  |  |  |  |  | > 50 µg/mL |  | MCC [21]: > 40 µg/mL; IC50 [22]: 9 µg/mL (≈ 40 µM); IC50 [25]: 0.23 µg/mL (≈ 1.02 µM); IC50 [27]: 0.32 µg/mL (≈ 1.42 µM)
Cc1ccn2c(CSCCO)cnc2c1 | 70 µg/mL (≈ 315 µM) | > 40 µg/mL | 100 µg/mL | 10 µg/mL | > 100 µg/mL | > 100 µg/mL | > 100 µg/mL | > 100 µg/mL | > 10 µg/mL | > 100 µg/mL | 70 µg/mL (≈ 315 µM) | > 200 µg/mL | > 100 µg/mL | > 100 µg/mL | > 10 µg/mL | > 10 µg/mL | > 200 µg/mL | 40 µg/mL | 70 µg/mL (≈ 315 µM) | > 10 µg/mL | MCC [21]: 40 µg/mL; IC50 [22]: 7 µg/mL (≈ 31.5 µM); IC50 [23]: > 10 µg/mL; IC50 [24]: 4 µg/mL (≈ 18 µM); IC50 [25]: 10 µg/mL (≈ 45 µM); CC50 [26]: 70 µg/mL (≈ 315 µM); IC50 [27]: 6 µg/mL (≈ 27 µM)
OCCSCc1c(-c2ccccc2)nc2ccccn12 | > 10 µg/mL | > 10 µg/mL | 40 µg/mL | > 100 µg/mL | 70 µg/mL (≈ 246 µM) | > 40 µg/mL | > 40 µg/mL | 70 µg/mL (≈ 246 µM) | > 100 µg/mL | 70 µg/mL (≈ 246 µM) | 20 µg/mL (≈ 70.3 µM) | > 200 µg/mL | 20 µg/mL (≈ 70.3 µM) | > 40 µg/mL | > 100 µg/mL | > 100 µg/mL | 100 µg/mL (≈ 352 µM) | > 40 µg/mL | 80 µg/mL (≈ 281 µM) | 20 µg/mL (≈ 70.3 µM) | MCC [21]: > 40 µg/mL; IC50 [22]: 10 µg/mL (≈ 35.2 µM); IC50 [23]: 25 µg/mL (≈ 87.9 µM); IC50 [24]: 26 µg/mL (≈ 91.4 µM); IC50 [25]: 28 µg/mL (≈ 98.5 µM); CC50 [26]: 80 µg/mL (≈ 281 µM); IC50 [27]: 35 µg/mL (≈ 123 µM)
Nc1nc2c(ncn2COC(CO)CO)c(=O)[nH]1 [GANCICLOVIR] |  |  |  |  |  |  |  |  |  |  |  |  |  |  |  |  |  | > 100 µg/mL |  | 2 µg/mL (≈ 7.84 µM) | IC50 [23]: 1.5 µg/mL (≈ 5.88 µM); CC50 [26]: 200 µg/mL (≈ 784 µM)
